Laboratory results published in patent publication US20190060261A1, “ACTIVE COMBINATIONS OF PERILLIC ACID AND ACTIVITY ENHANCING SUBSTANCES” (B.R.A.I.N BIOTECHNOLOGY RESEARCH AND INFORMATION NETWORK AG, priority 2016, published 2019).
In brackets after ≈: the same amount, converted by molar mass.

Key:
[1] = system: Escherichia coli, Pseudomonas aeruginosa, Stapyhlococcus aureus, Candida albicans and Aspergillus brasiliensis; experiment: Conservation efficacy test according to DIN EN ISO 11930 in cosmetic formulation, all five test strains; type: cell-based; conditions: cosmetic formulation (oil-water-emulsion), day 0 to day 28
Protocol: (§1) The composition of the formulations was in general as follows (ingredient amounts according to the FDA-code):
(§2) In order to confirm the activity against Gram-positive and Gram-negative bacteria, yeasts and moulds, conservation efficacy tests were performed according to DIN EN ISO 11930. The following classical contamination germs were examined: Escherichia coli (Ec in FIGS. 1 and 2) ATCC®8739, Pseudomonas aeruginosa (Pa in FIGS. 1 and 2) ATCC®9027, Stapyhlococcus aureus (Sa in FIGS. 1 and 2) ATCC®6538, Candida albicans (Ca in FIGS. 1 and 2) ATCC®10231 and Aspergillus brasiliensis (Ab in FIGS. 1 and 2) ATCC®16404. Media composition, incubation conditions and dilution procedures were all conducted according to the guidelines.
(§3) Data are presented as line graphs. […] The tested contamination germs are identified by different symbols as indicated in the diagrams with the following abbreviations: […]

[2] = system: Escherichia coli ATCC 8739; experiment: Minimal inhibition concentration (MIC), microdilution method adapted from DIN EN ISO 20776-1:2006; type: cell-based; conditions: Escherichia coli, ATCC8739; Mueller-Hinton II Bouillon, 25 mM MES-buffer, 37° C., no growth after 24 h and 72 h; read-out: MIC [A to D] Escherichia coli
Description: (§4) The antimicrobial activity of different substances was examined and compared to perillic acid in vitro using the microdilution method adapted from DIN EN ISO 20776-1:2006. Besides perillic acid and its sodium salt, other organic acids like levulinic acid, p-anisic acid, benzoic acid and sorbic acid as well as alkane-1,2-diols such as hexane-1,2-diol, octane-1,2-diol and decane-1,2-diol were studied. Additionally, the commonly used preservatives 2-phenoxyethanol, 2-phenylethanol and benzyl alcohol were investigated.
(§5) All experiments were done in 96-well plates in a final volume of 200 μL. Test solutions of the investigated compounds were prepared in 25 mM buffered water. The procedure was conducted as following: 4 μL of the particular stock solution were mixed with 196 μL culture medium containing a defined inoculum of the respective target strain. Sterile controls (not inoculated) and growth controls (buffer instead of compound added) were performed. All compound concentrations were tested in triplicate for several times. The following contamination germs were examined: Escherichia coli ATCC 8739, Pseudomonas aeruginosa ATCC 9027, Stapyhlococcus aureus ATCC®6538, Bacillus subtilis subsp. spizizenii ATCC®6633, Candida albicans ATCC®10231 and Aspergillus brasiliensis ATCC®16404. The strains were cultivated either in Mueller-Hinton II Bouillon (Escherichia coli, Pseudomonas aeruginosa, Staphylococcus aureus), in yeast peptone dextrose (Bacillus subtilis, Candida albicans) or in potato dextrose medium (Aspergillus brasiliensis). All culture media were buffered with 25 mM MES-buffer. For compound testing, the plates were incubated at 37° C. for Escherichia coli, Pseudomonas aeruginosa and Staphylococcus aureus, at 28° C. for Bacillus subtilis and Candida albicans, and at 25° C. for Aspergillus brasiliensis. Plates were evaluated after 24 h and 72 h, respectively. The minimal inhibitory concentration (MIC) is defined as the concentration where no microbial growth was observed after 24 h and 72 h incubation at the specified temperature.
(§6) MIC-values are given according to the following letter code.

[3] = system: Candida albicans ATCC®10231; experiment: Minimal inhibition concentration (MIC), microdilution method; type: cell-based; conditions: yeast peptone dextrose, 25 mM MES-buffer, 28° C., no growth after 24 h and 72 h
Description: as §4, §5, §6

[4] = system: Aspergillus brasiliensis ATCC®16404; experiment: as above; type: cell-based; conditions: Aspergillus brasiliensis, ATCC16404; potato dextrose medium, 25 mM MES-buffer, 25° C., no growth after 24 h and 72 h; read-out: MIC [A to D] Aspergillus brasiliensis
Description: as §4, §5, §6

[5] = system: Pseudomonas aeruginosa ATCC 9027; experiment: as above; type: cell-based; conditions: Pseudomonas aeruginosa, ATCC9027; Mueller-Hinton II Bouillon, 25 mM MES-buffer, 37° C., no growth after 24 h and 72 h; read-out: MIC [A to D] Pseudomonas aeruginosa
Description: as §4, §5, §6

[6] = system: Bacillus subtilis subsp. spizizenii ATCC®6633; experiment: as above; type: cell-based; conditions: Bacillus subtilis, ATCC6633; yeast peptone dextrose, 25 mM MES-buffer, 28° C., no growth after 24 h and 72 h; read-out: MIC [A to D] Bacillus subtilis
Description: as §4, §5, §6

[7] = system: Stapyhlococcus aureus ATCC®6538; experiment: as above; type: cell-based, Staphylococcus aureus; conditions: Mueller-Hinton II Bouillon, 25 mM MES-buffer, 37° C., no growth after 24 h and 72 h
Description: as §4, §5, §6

Escherichia coli = experiment: Combination of substances with perillic acid: reduction of the MIC of perillic acid; type: cell-based; conditions: test compound combined with perillic acid; experiments as in Example 1
Protocol: as §5
(§7) Activity of perillic acid was comparably low against Gram-negative bacteria. It was thus tested whether the respective MIC could be reduced by combination of perillic acid with selected substances.
(§8) Experiments were performed as described for Example 1 above. A reduction factor was determined, expressing the reduction of the MIC of perillic acid that was achievable by combination with the combination partner. For example, a reduction factor of 2 means that the MIC of perillic acid was reduced by a factor of 2 by combination of perillic acid with the respective activity enhancing substance.

Pseudomonas aeruginosa = experiment: as above; type: cell-based; conditions: test compound combined with perillic acid; experiments as in Example 1
Protocol: as §5, §7, §8

[8] = system: Candida albicans ATCC®10231; experiment: Conservation efficacy test according to DIN EN ISO 11930 in cosmetic formulation; type: cell-based; conditions: cosmetic formulation (oil-water-emulsion), day 0 to day 28
Protocol: as §1, §2, §3

[9] = system: Pseudomonas aeruginosa ATCC®9027; experiment: as above; type: cell-based; conditions: cosmetic formulation (oil-water-emulsion), day 0 to day 28
Protocol: as §1, §2, §3

[10] = system: Stapyhlococcus aureus ATCC®6538; experiment: as above; type: cell-based, Staphylococcus aureus; conditions: cosmetic formulation (oil-water-emulsion), day 0 to day 28
Protocol: as §1, §2, §3

[11] = system: Aspergillus brasiliensis ATCC®16404; experiment: as above; type: cell-based; conditions: cosmetic formulation (oil-water-emulsion), day 0 to day 28
Protocol: as §1, §2, §3

[12] = system: Escherichia coli ATCC®8739; experiment: as above; type: cell-based; conditions: cosmetic formulation (oil-water-emulsion), day 0 to day 28
Protocol: as §1, §2, §3

| SMILES | criteria according to the guidelines for an adequate conservation (all five test strains) [1] | MIC [2] [µg/mL] | MIC [A to D] Candida albicans [3] | MIC [4] [µg/mL] | MIC [5] [µg/mL] | MIC [6] [µg/mL] | MIC ([7]; Staphylococcus aureus, ATCC6538, read-out: MIC [A to D] Staphylococcus aureus) [µg/mL] | Reduction factor (reduction of the MIC of perillic acid by combination with the test compound) Escherichia coli (Escherichia coli) | Reduction factor (reduction of the MIC of perillic acid by combination with the test compound) Pseudomonas aeruginosa (Pseudomonas aeruginosa) | MIC [A to D] Staphylococcus aureus [7] | criteria for an adequate conservation against C. albicans [8] | criteria for an adequate conservation against P. aeruginosa [9] | criteria for an adequate conservation against S. aureus [10] | criteria for an adequate conservation against A. brasiliensis [11] | criteria for an adequate conservation against E. coli [12] |
| --- | --- | --- | --- | --- | --- | --- | --- | --- | --- | --- | --- | --- | --- | --- | --- |
| CC(=O)CCC(=O)O [Levulinic acid] | does not fulfill the criteria | 1000 to 5000 (≈ 8.61 to 43.1 mM) | A (MIC>1% (w/v)) | 1000 to 5000 (≈ 8.61 to 43.1 mM) | 1000 to 5000 (≈ 8.61 to 43.1 mM) | 5000 to 10000 (≈ 43.1 to 86.1 mM) | 1000 to 5000 (≈ 8.61 to 43.1 mM) | 200 | 40 |  |  |  |  |  |  |
| CCCCCCC(O)CO (centres unmarked) [Octane-1,2-diol] |  | 5000 to 10000 (≈ 34.2 to 68.4 mM) | A (MIC>1% (w/v)) | 1000 to 5000 (≈ 6.84 to 34.2 mM) | 1000 to 5000 (≈ 6.84 to 34.2 mM) | 1000 to 5000 (≈ 6.84 to 34.2 mM) |  | 2000 | 2000 | A (MIC>1% (w/v)) | does not fulfill the criteria | does not fulfill the criteria |  |  |  |
| C=C(C)[C@@H]1CC=C(C(=O)O)CC1 [Perillic acid] |  |  |  |  |  |  |  |  |  |  | fulfills the criteria |  | fulfills the criteria | fulfills the criteria | fulfills the criteria |
